Assay [1] has as its system PC12 cells co-cultured on monolayers of Schwann cells. The assay is described as follows: GFP-PC12 / Schwann cell co-culture neurite outgrowth. The format is cell-based, Sprague-Dawley rats (Schwann cells). Particulars: GM-284, 48 h. On the procedure:
Wild-type and TrkA-overexpressing PC12 cells (Hempstead et al., Overexpression of the trk tyrosine kinase rapidly accelerates nerve growth factor-induced differentiation. Neuron, 9:883-96, 1992) were maintained in DMEM supplemented with 10% calf serum and 5% horse serum, the latter of which was also supplemented with 200 μg/ml G418 to maintain TrkA selection. Cultures were treated with 100 ng/ml NGF or the immunophilin ligands, or treated with Schwann-cell-conditioned medium supplemented with 5% horse serum, as indicated below. To generate GFP-expressing PC12 cells, a bicistronic pCX-bsr retroviral vector (Escalante et al., Phosphorylation of c-Crk II on the negative regulatory Tyr222 mediates nerve growth factor-induced cell spreading and morphogenesis. J. Biol. Chem., 275:24787-797, 2000), which drives expression of green fluorescent protein (GFP), was used to infect dividing PC12 cells.
GFP-expressing virus was produced by lipofectamine-mediated transfection of 1.0 μg of pCX-bsr DNA, together with 1.0 μg of pC-Eco retroviral DNA, into the Bosc23 replication-incompetent ecotropic packaging line (Retromax™, Imgen), according to the manufacturer's protocols. The transfection medium was replaced with 10 ml of DMEM containing 10% fetal calf serum, for 24 h, and then collected and frozen at −70° C. The cells were re-fed with fresh DMEM (10 ml), and maintained for an additional 16 h. […]

The next assay relates to DRG explants. The assay is described as follows: Neurite outgrowth from DRG explants. As to conditions: 1 μM GM-284, 96 h. The format is cell-based, C57B1/6 mice. How it is done: (A) DRGs were explanted and cultured alone, (panel i), in the presence of 100 ng/ml NGF (panel ii) or in the presence of 1 μM GM-284 (panel iii), for 96 h. At the end of the culture period, the tissue was fixed and stained for expression of neuron-specific β-III tubulin. […] (B) Both Schwann cells and neurons are present in DRG explants. To determine if the neuritogenic effects of GM-284 are direct, acting on neurons, or indirect, acting through Schwann cells, sensory neurons from E18 mice were isolated and treated with either NGF (left panel) or GM-284 (right panel) for 6 days.
Explanted DRG ganglia were dissected from P1 to P3 C57B1/6 mice, as previously described (Weinstein et al., Targeted expression of an oncogenic adaptor protein v-Crk potentiates axonal growth in dorsal root ganglia and motor neurons in vivo. Brain Res. Dev. Brain Res., 116:29-39, 1999). Briefly, DRGs were dissected and placed in ice-cold PBS containing 2% glucose, then transferred onto polyornithine/laminin-coated tissue culture plates (Biocoat, Becton Dickinson Laboratories) in DMEM-plating medium overnight. […] Cultures were kept at 37° C., in 5% CO2, for up to 1 week, at which time the extent of well-defined neurite outgrowth was assessed.

For a further assay, the system named is calcineurin. As to conditions: cited from earlier work.

Entries after “also recorded” stand apart in the source; their conditions may differ.

As for `CCC(C)(C)C(=O)C(=O)N1CCC[C@H]1c1nnc([C@@H]2CCCN2C(=O)C(=O)C(C)(C)CC)o1` [GM-284], in assay [1], the “neuritogenesis of PC12 cells co-cultured with Schwann cells” value was “extensive neuritogenesis”. The “neurite outgrowth from DRG explants” value in the assay on DRG explants was “as active as NGF in inducing neuritogenesis; also recorded: indistinguishable from NGF-treated sister explants; also recorded: comparable outgrowth in the NGF and GM-284 treated cultures”. In addition, the “binding to / inhibition of calcineurin” value in the assay with calcineurin is reported as “neither bind to, nor inhibit, calcineurin”.

(Values after patent publication US20040266811A1, “Methods for inducing regeneration, remyelination, and hypermyelination of nervous tissue” (priority 2002, published 2004).)
